Like-named read-outs stand apart in the source and are kept apart here.
What was measured:
HCC827 cells [1] = experiment: HCC827 cell proliferation assay, single agents and combinations; format: cell-based, human
MET = molecular target: T1, MET (Homo sapiens, UniProt P08581); experiment: Biochemical kinase assay (Reaction Biology), MET; conditions: 10 μM ATP; read-out: Enzymatic Kinase MET IC50
T1 construct: purchased Reaction Biology Corporation (assay service; enzyme from the CRO's panel)
Description: (§1) Specific kinase/substrate pairs along with required cofactors were prepared in reaction buffer; 20 mM Hepes pH 7.5, 10 mM MgCl2,1 mM EGTA, 0.02% Brij35, 0.02 mg/ml BSA, 0.1 mM Na3VO4, 2 mM DTT, 1% DMSO (for specific details of individual kinase reaction components see Supplementary Table 2). Compounds were delivered into the reaction, followed ˜20 minutes later by addition of a mixture of ATP (Sigma, St. Louis MO) and ^33P ATP (Perkin Elmer, Waltham MA) to a final concentration of 10 μM. Reactions were carried out at room temperature for 120 min, followed by spotting of the reactions onto P81 ion exchange filter paper (Whatman Inc., Piscataway, NJ). […] IC50 values and curve fits were obtained using Prism (GraphPad Software).
(§2) The enzymatic kinase inhibition activities at 10 μM ATP concentration were determined at Reaction Biology.

MKN-45 cells [2] = experiment: MET cell proliferation assay, MKN-45 (CellTiter-Glo); format: cell-based; conditions: Homo sapiens, 72 hours treatment
Description: (§3) Two thousand cells per well were seeded in 384 well white plate for 24 hrs, and then treated with compounds for 72 hours (37° C., 5% CO2). Cell proliferation was measured using CellTiter-Glo luciferase-based ATP detection assay (Promega) following the manufacturer's protocol. IC50 determinations were performed using GraphPad Prism software (GraphPad, Inc., San Diego, CA).
(§4) The anti-cell proliferation activities against MET and CSF1R driven cell lines were conducted with MKN-45, SNU-5, Ba/F3 TEL-CSF1R cells, and M-NFS-60 respectively.

SNU-5 cells = experiment: MET cell proliferation assay, SNU-5 (CellTiter-Glo); format: cell-based; conditions: Homo sapiens, 72 hours treatment
Description: as §3, §4

SRC = molecular target: T2, SRC (Homo sapiens, UniProt P12931); experiment: Biochemical kinase assay (Reaction Biology), SRC; conditions: 10 μM ATP; read-out: Enzymatic Kinase SRC IC50
T2 construct: purchased Reaction Biology Corporation (assay service; enzyme from the CRO's panel)
Description: as §1, with “The biochemical kinase assay was performed at Reaction Biology Corporation (www.reactionbiology.com, Malvern, PA) following the procedures described in the reference (Anastassiadis T, et al Nat Biotechnol. 2011, 29, 1039). Specific” for “Specific”, “NJ). Unbound phosphate was removed by extensive washing of filters in 0.75% phosphoric acid.” for “NJ).”
as §2

c-FMS (CSF1R) = molecular target: T3, c-FMS (CSF1R) (Homo sapiens, UniProt P07333); experiment: Biochemical kinase assay (Reaction Biology), c-FMS (CSF1R); conditions: 10 μM ATP; read-out: Enzymatic Kinase c-FMS (CSF1R) IC50
T3 construct: purchased Reaction Biology Corporation (assay service; enzyme from the CRO's panel)
Description: as §1, §2

M-NFS-60 cells = experiment: M-NFS-60 cell proliferation at varied CSF-1; format: cell-based; conditions: Mus musculus, read-out: M-NFS-60 IC50
Description: as §3, §4

MKN-45 cells [3] = experiment: Scratch wound healing assay, MKN-45; format: cell-based; conditions: 36-48 hours treatment
Description: (§5) MKN-45 or HCC827 cells were seeded in 24-well plate. After 12-24 hours, confluent cell monolayers were gently scraped with a sterile pipette tip to form a scratch. The plates were washed with fresh medium, and the cells were incubated with medium alone or medium containing various concentration of compounds. After 36-48 hours, the plates were examined and recorded by an EVOS FL microscopy (Life Technology) to monitor rescaling of the cell monolayer.

HCC827 cells [4] = experiment: Scratch wound healing assay, HCC827; format: cell-based, human; conditions: 36-48 hours treatment
Description: as §5

T1 sequence (P08581 25-1390): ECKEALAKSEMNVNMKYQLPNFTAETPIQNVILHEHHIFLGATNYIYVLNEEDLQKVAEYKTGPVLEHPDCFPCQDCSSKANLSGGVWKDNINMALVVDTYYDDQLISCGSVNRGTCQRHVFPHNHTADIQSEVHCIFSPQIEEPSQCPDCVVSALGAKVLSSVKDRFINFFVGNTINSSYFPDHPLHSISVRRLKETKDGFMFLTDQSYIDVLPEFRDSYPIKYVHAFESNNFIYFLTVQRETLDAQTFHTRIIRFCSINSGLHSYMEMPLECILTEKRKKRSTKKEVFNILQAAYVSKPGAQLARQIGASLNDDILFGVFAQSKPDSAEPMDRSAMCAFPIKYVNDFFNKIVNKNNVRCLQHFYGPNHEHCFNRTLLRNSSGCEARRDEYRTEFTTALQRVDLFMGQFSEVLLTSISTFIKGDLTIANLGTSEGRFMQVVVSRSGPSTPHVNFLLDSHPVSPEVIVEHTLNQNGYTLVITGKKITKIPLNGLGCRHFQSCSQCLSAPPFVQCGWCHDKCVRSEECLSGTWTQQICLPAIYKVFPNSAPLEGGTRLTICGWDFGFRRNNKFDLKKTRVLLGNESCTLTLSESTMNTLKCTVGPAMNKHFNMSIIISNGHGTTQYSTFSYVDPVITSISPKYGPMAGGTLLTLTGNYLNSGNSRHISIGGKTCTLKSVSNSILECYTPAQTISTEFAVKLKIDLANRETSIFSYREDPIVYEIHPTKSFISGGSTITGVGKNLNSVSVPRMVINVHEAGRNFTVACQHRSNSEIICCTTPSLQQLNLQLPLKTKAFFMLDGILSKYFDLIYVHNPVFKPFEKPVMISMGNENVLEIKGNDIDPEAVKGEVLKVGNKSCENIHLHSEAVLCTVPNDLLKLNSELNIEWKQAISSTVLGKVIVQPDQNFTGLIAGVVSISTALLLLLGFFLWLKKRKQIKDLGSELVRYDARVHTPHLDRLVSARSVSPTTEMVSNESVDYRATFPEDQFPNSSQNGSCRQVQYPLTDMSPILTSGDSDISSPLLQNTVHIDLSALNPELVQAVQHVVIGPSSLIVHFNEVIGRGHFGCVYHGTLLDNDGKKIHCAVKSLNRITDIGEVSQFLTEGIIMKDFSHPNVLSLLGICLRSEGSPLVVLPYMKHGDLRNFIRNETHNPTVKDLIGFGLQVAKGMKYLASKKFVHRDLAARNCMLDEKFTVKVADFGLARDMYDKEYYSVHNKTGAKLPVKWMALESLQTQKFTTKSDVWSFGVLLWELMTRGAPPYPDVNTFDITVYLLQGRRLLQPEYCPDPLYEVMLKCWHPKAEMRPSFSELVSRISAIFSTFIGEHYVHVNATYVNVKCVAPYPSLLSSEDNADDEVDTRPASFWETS
T2 sequence (P12931 whole entry): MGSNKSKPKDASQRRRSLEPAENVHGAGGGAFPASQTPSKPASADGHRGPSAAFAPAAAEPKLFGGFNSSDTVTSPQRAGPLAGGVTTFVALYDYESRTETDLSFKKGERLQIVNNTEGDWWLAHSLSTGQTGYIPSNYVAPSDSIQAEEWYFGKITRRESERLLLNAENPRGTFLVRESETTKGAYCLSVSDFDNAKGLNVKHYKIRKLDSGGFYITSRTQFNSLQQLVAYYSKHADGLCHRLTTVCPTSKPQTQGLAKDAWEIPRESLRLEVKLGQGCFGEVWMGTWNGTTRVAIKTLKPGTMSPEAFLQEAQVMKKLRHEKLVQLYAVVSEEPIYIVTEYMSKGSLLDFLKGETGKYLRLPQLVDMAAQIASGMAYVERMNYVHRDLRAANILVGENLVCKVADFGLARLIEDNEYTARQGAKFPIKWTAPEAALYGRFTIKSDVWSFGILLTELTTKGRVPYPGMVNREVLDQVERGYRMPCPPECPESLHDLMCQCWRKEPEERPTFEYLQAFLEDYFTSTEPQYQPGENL
T3 sequence (P07333 20-972): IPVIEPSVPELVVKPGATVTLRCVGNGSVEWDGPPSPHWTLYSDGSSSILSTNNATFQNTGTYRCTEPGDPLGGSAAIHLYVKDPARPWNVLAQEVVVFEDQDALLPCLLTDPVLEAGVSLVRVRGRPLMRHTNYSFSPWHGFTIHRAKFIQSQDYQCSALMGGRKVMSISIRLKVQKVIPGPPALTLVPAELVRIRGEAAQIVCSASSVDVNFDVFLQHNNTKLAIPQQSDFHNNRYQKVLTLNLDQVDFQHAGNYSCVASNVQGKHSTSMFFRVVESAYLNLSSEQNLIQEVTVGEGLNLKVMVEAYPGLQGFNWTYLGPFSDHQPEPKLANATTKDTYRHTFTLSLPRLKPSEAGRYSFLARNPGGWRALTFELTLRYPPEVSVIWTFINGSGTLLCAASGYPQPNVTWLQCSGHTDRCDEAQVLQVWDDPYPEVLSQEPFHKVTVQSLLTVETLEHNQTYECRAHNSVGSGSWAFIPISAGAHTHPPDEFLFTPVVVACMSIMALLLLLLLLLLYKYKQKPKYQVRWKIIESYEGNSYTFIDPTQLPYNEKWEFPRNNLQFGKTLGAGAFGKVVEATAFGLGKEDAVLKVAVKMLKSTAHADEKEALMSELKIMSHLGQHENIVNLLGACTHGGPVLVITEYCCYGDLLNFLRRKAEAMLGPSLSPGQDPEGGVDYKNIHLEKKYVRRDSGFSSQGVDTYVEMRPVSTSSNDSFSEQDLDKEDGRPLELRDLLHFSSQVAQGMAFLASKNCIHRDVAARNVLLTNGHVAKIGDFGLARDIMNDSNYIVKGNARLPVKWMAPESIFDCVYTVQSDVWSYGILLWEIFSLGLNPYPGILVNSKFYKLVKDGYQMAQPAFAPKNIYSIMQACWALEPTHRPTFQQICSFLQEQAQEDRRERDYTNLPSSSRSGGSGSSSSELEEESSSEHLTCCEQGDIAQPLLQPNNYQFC

| Structure (SMILES) | IC50 (MET) | IC50 (MKN-45 cells [2]) | IC50 (SNU-5 cells) | IC50 (SRC) | further results |
| --- | --- | --- | --- | --- | --- |
| C=CC(=O)Nc1cc(Nc2nccc(-c3cn(C)c4ccccc34)n2)c(OC)cc1N(C)CCN(C)C [AZD9291] | – | – | – | – | Emax (HCC827 cells [1]; Homo sapiens, HCC827, read-out: HCC827 cell proliferation Emax (maximum inhibition)): 47%; IC50 (HCC827 cells [1]; Homo sapiens, HCC827, read-out: HCC827 cell proliferation IC50): 5 nM |
| CCN1Cc2c(ccc(F)c2Cl)O[C@@H](C)CNC(=O)c2c(N)nn3ccc1nc23 [Compound 1, (7S)-3-amino-12-chloro-14-ethyl-11-fluoro-7-methyl-6,7,13,14-tetrahydro-1,15-ethenopyrazolo[4,3-f][1,4,8,10]benzoxatriazacyclotridecin-4(5H)-one] | 20.4 nM | 193 nM | 174 nM | – | – |
| CCN1Cc2c(C#N)cccc2O[C@@H](C)CNC(=O)c2cnn3ccc1nc23 [Compound 2, (7S)-14-ethyl-7-methyl-4-oxo-4,5,6.7,13,14-hexahydro-1,15-ethenopyrazolo[4,3-f][1,4,8,10]benzoxatriazacyclotridecine-12-carbonitrile] | 36.5 nM | 129 nM | 136 nM | 3 nM | – |
| CCN1Cc2c(C#N)cccc2OCCNC(=O)c2cnn3ccc1nc23 [Compound 3, 14-ethyl-4-oxo-4,5,6,7,13,14-hexahydro-1,15-ethenopyrazolo[4,3-f][1,4,8,10]benzoxatriazacyclotridecine-12-carbonitrile] | 110 nM | 471 nM | 674 nM | 97.1 nM | – |
| CCN1Cc2c(ccc(F)c2C#N)O[C@@H](C)CNC(=O)c2cnn3ccc1nc23 [Compound 4, (7S)-14-ethyl-11-fluoro-7-methyl-4-oxo-4,5,6,7,13,14-hexahydro-1,15-ethenopyrazolo[4,3-f][1,4,8,10]benzoxatriazacyclotridecine-12-carbonitrile] | 1.85 nM | 12 nM | 5.8 nM | 0.49 nM | IC50 (c-FMS (CSF1R)): 0.42 nM |
| CCN1Cc2c(C#N)cccc2O[C@@H](C)CNC(=O)c2c(N)nn3ccc1nc23 [Compound 6, (7S)-3-amino-14-ethyl-7-methyl-4-oxo-4,5,6,7,13,14-hexahydro-1,15-ethenopyrazolo[4,3-f][1,4,8,10]benzoxatriazacyclotridecine-12-carbonitrile] | 9.7 nM | 58.3 nM | 36.8 nM | 13.6 nM | – |
| C[C@H]1CNC(=O)c2c(N)nn3ccc(nc23)N(CC2CC2)Cc2c(ccc(F)c2C#N)O1 [Compound 7, (7S)-3-amino-14-(cyclopropylmethyl)-11-fluoro-7-methyl-4-oxo-4,5,6,7,13,14-hexahydro-1,15-ethenopyrazolo[4,3-f][1,4,8,10]benzoxatriazacyclotridecine-12-carbonitrile] | 2.2 nM | 17.7 nM | 1 nM | 0.7 nM | – |
| CC(C)N1Cc2c(ccc(F)c2C#N)O[C@@H](C)CNC(=O)c2c(N)nn3ccc1nc23 [Compound 8, (7S)-3-amino-11-fluoro-7-methyl-4-oxo-14-(propan-2-yl)-4,5,6,7,13,14-hexahydro-1,15-ethenopyrazolo[4,3-f][1,4,8,10]benzoxatriazacyclotridecine-12-carbonitrile] | 3.8 nM | 1 nM | 1 nM | 0.83 nM | – |
| C[C@H]1CNC(=O)c2c(N)nn3ccc(nc23)NCc2c(ccc(F)c2C#N)O1 [Compound 9, (7S)-3-amino-11-fluoro-7-methyl-4-oxo-4,5,6,7,13,14-hexahydro-1,15-ethenopyrazolo[4,3-f][1,4,8,10]benzoxatriazacyclotridecine-12-carbonitrile] | – | 297 nM | – | – | – |
| FC(F)(F)c1ccc(CNc2ccc(Cc3c[nH]c4ncc(Cl)cc34)cn2)cn1 [Pexidartinib, reference compound] | – | – | – | – | IC50 (M-NFS-60 cells; CSF-1 0 ng/mL): < 0.1 nM; IC50 (M-NFS-60 cells; CSF-1 0.3 ng/mL): 2 nM; IC50 (M-NFS-60 cells; CSF-1 1 ng/mL): 146 nM; IC50 (M-NFS-60 cells; CSF-1 3 ng/mL): 212 nM; IC50 (M-NFS-60 cells; CSF-1 10 ng/mL): 380 nM; IC50 (M-NFS-60 cells; CSF-1 30 ng/mL): 595 nM; IC50 (M-NFS-60 cells; CSF-1 100 ng/mL): 702 nM |
| CNC(=O)c1ccc(-c2cnc3ncc(Cc4ccc5ncccc5c4)n3n2)cc1F [capmatinib] | – | – | – | – | IC50 (HCC827 cells [1]; Homo sapiens, HCC827, combination partner at 1 μM where combined, AZD9291 curves partial, read-out: HCC827 cell proliferation IC50): > 10000 nM; HCC827 cell proliferation IC50 (HCC827 cells [1]; combination partner at 1 μM where combined, AZD9291 curves partial): not active; cell migration of MKN-45 cells, wound healing (MKN-45 cells [3]): inhibited; cell migration of HCC827 cells, wound healing (HCC827 cells [4]): minimum effect; cell migration of HCC827 cells, wound healing (HCC827 cells [4]; listed as campmatinib): minimal effect |

Reference: patent publication US12606571B2, “Macrocyclic compounds and uses thereof” (TURNING POINT THERAPEUTICS, INC., priority 2017, dated 2026)
